Several values for one entry are separate records, joined by “and”; a condition that tells them apart may be missing. Identical values can stand only once.
How the values were obtained:
[1] = biological target: T1, tau (Homo sapiens, UniProt P10636); test: In cellulo tau aggregation inhibition, Thioflavin S fluorescence in E. coli overexpressing tau; format: cell-based, Escherichia coli; details: at 10 µM; mean of three experiments ± SEM
T1 construct: expressed in transfected cells; host or cells: E. coli BL21 (DE3) with pTARA (T7 RNA polymerase under pBAD) and pRKT42
T1 sequence (P10636 other isoform, or with tags, fused parts or gaps): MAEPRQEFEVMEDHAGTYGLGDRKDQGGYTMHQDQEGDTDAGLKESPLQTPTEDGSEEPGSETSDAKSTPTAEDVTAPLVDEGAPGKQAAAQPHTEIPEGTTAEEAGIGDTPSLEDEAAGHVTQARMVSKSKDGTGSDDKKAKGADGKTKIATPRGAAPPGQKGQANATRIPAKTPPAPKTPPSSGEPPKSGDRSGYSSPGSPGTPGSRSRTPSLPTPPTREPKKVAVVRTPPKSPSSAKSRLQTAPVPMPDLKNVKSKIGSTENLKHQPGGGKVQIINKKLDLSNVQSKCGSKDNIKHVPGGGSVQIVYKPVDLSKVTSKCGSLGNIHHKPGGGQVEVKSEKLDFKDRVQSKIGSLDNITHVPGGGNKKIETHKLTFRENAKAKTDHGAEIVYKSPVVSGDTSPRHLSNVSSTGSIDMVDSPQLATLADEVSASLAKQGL
Text: (§1) We screened multifunctional ligands from our in-house library for their anti-aggregating activity against Aβ and tau in the whole bacterial cells using the Thioflavin S (ThS) fluorescence assay. Bacterial cells overexpressing different proteins provide simple models that can be easily employed to monitor the mechanisms of protein aggregation related to a variety of conformational diseases[36]^,[37]. In our assay, E. coli system has been implemented to study the effect of potential Aβ42 and tau aggregation inhibitors within intact cells. The advantage of the test over in vitro tests is the fact that it considers the complexity of the cellular environment that plays a crucial role in tuning protein aggregation. This assay has been validated and successfully applied to assess the anti-aggregating properties of diverse chemical structures. Previously investigated tetrahydrobenzo[h][1,6] naphthyridine-6-chlorotacrine hybrid DP-128 was used as a reference compound[38]^,[39].
(§2) The assays were conducted according to the procedure described previously. All general chemicals were purchased from Sigma-Aldrich (St. Louis, MO) . Reagents for bacterial media were purchased from Conda (Sevilla, Spain). M9 minimal medium for 100 mL: 10 mL of salts 10× (0.68 g of Na2HPO4, 0.30 g of KH2PO4, 0.05 g of NaCl, 0.10 g of NH4Cl), 0.2 mL of 1 M MgSO4, 0.2 mL of 50 mM CaCl2, 2.5 mL of 20% glucose, and 87.1 mL of H2O.
(§3) E. coli competent cells BL21 (DE3) were transformed with the pET28a vector (Novagen, Inc., Madison, WI) carrying the DNA sequence of Aβ42 or with pTARA containing the RNA polymerase gene of T7 phage (T7RP) under the control of the promoter pBAD, then with pRKT42 vector encoding four repeats of tau protein in two inserts. For overnight culture preparation, 10 ml of M9 minimal medium containing 50 μg/mL of kanamycin (Aβ42) or 50 μg/mL of ampicillin and 12.5 μg/mL of chloramphenicol (tau) were inoculated with a colony of BL21 (DE3) bearing the plasmid Aβ42 or tau plasmids to be expressed at 37 °C and 180 rpm using an incubator shaker (Ovan, Barcelona, Spain). After overnight growth, the OD600 was usually 2 − 2.5. For expression of Aβ42 peptide/tau protein, 200 μL of overnight culture were transferred into Eppendorf tubes of 1.5 mL containing 790 μL of fresh M9 minimal medium with 50 μg/mL of kanamycin1 mM of isopropyl 1-thio-β-D-galactopyranoside (IPTG) (Aβ42) or 50 μg/mL of ampicillin, 12.5 μg/mL of chloramphenicol, 0.25% of arabinose (tau), and 25 μM of ThS and 10 μL of reference, tested compounds (1 mM in DMSO, final concentration: 10 μM) or DMSO. The samples were grown for 24 h at 37 °C and 180 rpm using an incubator shaker (Ovan). The samples with DMSO were prepared as a negative control (maximum level of Aβ42/tau, 0% of inhibition). In the positive controls, the M9 medium without IPTG (minimal level of Aβ42) or arabinose (minimal level of tau) was used. For absorbance and fluorescence determination, 200 μL of each Eppendorf tube was transferred in triplicate into 96-well plate. Finally, the fluorescence emission at 520 nm, when exciting at 440 nm and absorbance at 600 nm was recorded using the multi-mode microplate reader (Beckman Counter, Brea, CA). The absorbance at 600 nm (OD600) of these samples was assessed to check the bacterial growth and potential intrinsic toxicity of the tested compounds. Final data are the average of three independent experiments. DP-128 was used as a reference compound[38].

[2] = biological target: T2, Aβ42 (Homo sapiens, UniProt P05067); test: In cellulo Aβ42 aggregation inhibition, Thioflavin S fluorescence in E. coli overexpressing Aβ42; format: cell-based, Escherichia coli; details: at 10 µM; mean of three experiments ± SEM
T2 construct: expressed in transfected cells; host or cells: E. coli BL21 (DE3) with pET28a-Aβ42, IPTG-induced
T2 sequence (P05067 672-713): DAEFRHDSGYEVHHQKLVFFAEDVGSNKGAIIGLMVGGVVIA
Text: as §1, §2, §3

[3] = biological target: T3, human BACE1 (Homo sapiens, UniProt P56817); test: In vitro inhibition of human BACE1, FRET assay; format: biochemical; details: for IC50: mean of three experiments ± SEM, read-out: hBACE1 IC50; for hBACE1 % inhibition: at 10 µM per table footnote b, mean of three experiments ± SD; for BACE1 percentage of inhibition: screening concentration 50 µM
T3 construct: purchased Panvera, Madison, WI (BACE1 FRET Assay Kit); host or cells: baculovirus-expressed
T3 sequence (P56817 46-501): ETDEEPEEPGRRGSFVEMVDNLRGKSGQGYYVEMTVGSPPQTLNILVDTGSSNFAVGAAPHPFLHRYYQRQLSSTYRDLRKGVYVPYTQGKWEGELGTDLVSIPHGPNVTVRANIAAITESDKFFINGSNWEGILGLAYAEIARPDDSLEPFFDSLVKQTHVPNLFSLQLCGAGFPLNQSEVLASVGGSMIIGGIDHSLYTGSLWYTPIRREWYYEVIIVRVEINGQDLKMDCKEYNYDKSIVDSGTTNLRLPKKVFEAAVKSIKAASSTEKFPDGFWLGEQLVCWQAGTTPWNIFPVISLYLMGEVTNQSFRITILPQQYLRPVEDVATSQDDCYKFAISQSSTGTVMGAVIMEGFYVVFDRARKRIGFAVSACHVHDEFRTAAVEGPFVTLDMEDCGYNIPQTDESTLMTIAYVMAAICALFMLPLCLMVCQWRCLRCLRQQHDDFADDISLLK
Procedure: To further explore the multifunctional profile of the ligands, we screened them for their inhibitory activity against human BACE1 using spectrofluorometric assay (fluorescence resonance energy transfer (FRET)-based). […] Therefore, BACE1 inhibitors are now being tested in earlier stages of AD and in asymptomatic subjects at risk of AD, with the hope of blocking the disease process before it becomes irreversible.
BACE1 FRET Assay Kit (Panvera, Madison, WI) was performed according to the manufacturer’s protocol with small modifications. The Kit includes purified baculovirus-expressed BACE1 and specific peptide substrate (Rh-[…]-quencher), based on the “Swedish” mutant of APP. The analysis was carried, using 384-well black microplates and a microplate reader (EnSpire Multimode; PerkinElmer, Waltham, MA). The wavelength was optimised for the 553 nm excitation and 576 nm emission. Stock solutions of all test compounds were prepared in DMSO and further diluted with assay buffer (50 mM sodium acetate; pH 4.5). In the first step, 10 μL of BACE1 substrate was mixed with 10 μL of test compound (or assay buffer; i.e. blank sample), then 10 μL of the enzyme (1 U/mL) was added to start the reaction. After 60 min of incubation at 25 °C, 10 μL of stop solution (2.5 M sodium acetate) was applied to stop the reaction. The fluorescence signal was read at 576 nm. Percent of inhibition was calculated from [1 − (S60 − S0)/(C60 − C0)] × 100, where S0 and S60 are fluorescence intensities of the test sample (enzyme, substrate, test compound) at the beginning of the reaction and after 60 min, respectively, while C0 and C60 are analogical fluorescence intensities of the blank sample (enzyme, substrate, buffer). […] Each compound was analysed in triplicate. Commercially available BACE1 Inhibitor IV (Calbiochem, Merck; Nottingham, UK) was used as the reference compound. The IC50 values were calculated using nonlinear regression (GraphPad Prism 5 [GraphPad Software, San Diego, CA, 5.00]) by plotting the residual enzyme activities against the applied inhibitor concentration.

[4] = system: hAChE; details: read-out: hAChE IC50; cited from earlier work
[5] = system: eqBuChE; details: read-out: eqBuChE IC50; cited from earlier work

Compound | In cellulo tau inhibition % [1] | In cellulo Aβ42 inhibition % [2] | IC50 [3] | hBACE1 % inhibition [3] | IC50 [4] [µM] | IC50 [5] [µM] | BACE1 percentage of inhibition [3]
O=S(=O)(c1ccccc1)n1ccc2c(N3CCN(CCNc4c5c(nc6ccccc46)CCCC5)CC3)cccc21 [Compound 1] | 58.1 ± 4.8% | 40.7 ± 4.3% | 1.58 ± 0.15 µM | – | – | – | –
O=S(=O)(c1ccccc1)n1ccc2c(N3CCN(CCCCCNc4c5c(nc6ccccc46)CCCC5)CC3)cccc21 [Compound 2] | – | – | 8.07 ± 0.15 µM | – | – | – | –
O=S(=O)(c1ccccc1)n1ccc2c(N3CCN(CCCCCCCNc4c5c(nc6ccccc46)CCCC5)CC3)cccc21 [Compound 4] | 46.4 ± 5.9% | 58.8 ± 4.2% | 1.31 ± 0.06 µM | – | – | – | –
O=S(=O)(c1ccccc1)n1ccc2c(N3CCN(CCCCCCCCNc4c5c(nc6ccccc46)CCCC5)CC3)cccc21 [Compound 5] | 52.7 ± 5.7% | 61.8 ± 4.1% | 2.29 ± 0.13 µM | – | – | – | –
O=S(=O)(c1ccccc1)n1ccc2c(N3CCN(CCNCc4ccccc4)CC3)cccc21 [Compound 6] | 54.6 ± 6.2% | 64.8 ± 3.4% | – | 67.4% ± 4.8 | – | – | –
O=S(=O)(c1ccccc1)n1ccc2c(N3CCN(CCCNCc4ccccc4)CC3)cccc21 [Compound 7] | 39.7 ± 3.8% | 48.3 ± 4.2% | 5.82 ± 0.34 µM | – | – | – | –
O=S(=O)(c1ccccc1)n1ccc2c(N3CCN(CCCCNCc4ccccc4)CC3)cccc21 [Compound 8] | 45.1 ± 5.1% | 54.5 ± 3.8% | 19.7 ± 1.54 µM | – | – | – | –
O=S(=O)(c1ccccc1)n1ccc2c(N3CCN(CCCCCNCc4ccccc4)CC3)cccc21 [Compound 9] | 44.8 ± 5.6% | 48.0 ± 4.0% | 23.4 ± 1.6 µM | – | – | – | –
c1ccc(Cn2ccc3c(N4CCN(CCNc5c6c(nc7ccccc57)CCCC6)CC4)cccc32)cc1 [Compound 17] | 59% and 58.6 ± 4.5% | 56% and 55.7 ± 2.8% | 4 µM and 4.09 µM | – | 0.026 | 0.005 | –
c1ccc(Cn2ccc3c(N4CCN(CCCNc5c6c(nc7ccccc57)CCCC6)CC4)cccc32)cc1 [Compound 18] | – | – | 4.58 ± 0.21 µM | – | – | – | –
c1ccc(Cn2ccc3c(N4CCN(CCCCCNc5c6c(nc7ccccc57)CCCC6)CC4)cccc32)cc1 [Compound 19] | – | – | 7.23 ± 0.38 µM | – | – | – | –
c1ccc(Cn2ccc3c(N4CCN(CCCCCCNc5c6c(nc7ccccc57)CCCC6)CC4)cccc32)cc1 [Compound 20] | 64.0 ± 5.1% | 66.9 ± 3.9% | – | 62.1% ± 5.8 | – | – | 62%
c1ccc(CNCCCCN2CCN(c3cccc4c3ccn4Cc3ccccc3)CC2)cc1 [Compound 21] | 41.3 ± 6.3% | 12.2 ± 4.1% | 21.9 ± 1.16 µM | – | – | – | –
c1ccc(CNCCCCCN2CCN(c3cccc4c3ccn4Cc3ccccc3)CC2)cc1 [Compound 22] | 44.3 ± 6.5% | 25.2 ± 3.4% | – | 63.9% ± 7.7 | – | – | –
c1ccc(CNCCCCCCN2CCN(c3cccc4c3ccn4Cc3ccccc3)CC2)cc1 [Compound 23] | 28.4 ± 3.8% | 16.4 ± 2.8% | 30.9 ± 1.58 µM | – | – | – | –
c1ccc(CNCCCCCCCN2CCN(c3cccc4c3ccn4Cc3ccccc3)CC2)cc1 [Compound 24] | 55.6 ± 4.2% | 21.4 ± 3.4% | 21.7 ± 1.57 µM | – | – | – | –
Cc1c(OCc2ccccc2)cccc1N1CCN(CCCNc2c3c(nc4ccccc24)CCCC3)CC1 [Compound 27] | 64.5 ± 4.1% | 64.9 ± 4.5% | 5.76 ± 0.28 µM | – | – | – | –
Cc1c(OCc2ccccc2)cccc1N1CCN(CCCCCCNc2c3c(nc4ccccc24)CCCC3)CC1 [Compound 28] | 64.8 ± 2.2% | 64.2 ± 3.4% | – | 67.4% ± 11.3 | – | – | 67%
Cc1c(OCc2ccccc2)cccc1N1CCN(CCCCCCCNc2c3c(nc4ccccc24)CCCC3)CC1 [Compound 29] | 70.3 ± 3.9% | 67.4 ± 4.1% | 4.07 ± 0.27 µM | – | – | – | –
Cc1c(OCc2ccccc2)cccc1N1CCN(CCCCCCCCNc2c3c(nc4ccccc24)CCCC3)CC1 [Compound 30] | 60.2 ± 2.6% | 66.7 ± 5.1% | – | 33.6% ± 11.1 | – | – | 34%
Cc1c(OCc2ccccc2)cccc1N1CCN(CCCNCc2ccccc2)CC1 [Compound 31] | 39.5 ± 8.3% | 24.4 ± 3.4% | – | 34.0% ± 11.4 | – | – | –
Cc1c(OCc2ccccc2)cccc1N1CCN(CCCCNCc2ccccc2)CC1 [Compound 32] | 42.5 ± 6.3% | 43.2 ± 5.4% | – | 42.8% ± 12.7 | – | – | 42.8%
Cc1c(OCc2ccccc2)cccc1N1CCN(CCCCCNCc2ccccc2)CC1 [Compound 33] | 55.8 ± 5.3% | 29.0 ± 4.5% | – | 31.5% ± 1.1 | – | – | about 30%
